A melting point compilation (Tetko et al.; mined from patent text by program, amines drawn as free bases though some values may be those of a salt)

SMILES	melting point
COc1cc2c(c(OS(=O)(=O)c3ccc(C)cc3)c1OC)C1=C(CCC1)C(=O)CC2	138 °C
O=C(NC1(C(=O)O)CCCC1)OCc1ccccc1	70 to 80 °C
COC(=O)C1=C(C)Nc2ccccc2NC1c1cccc([N+](=O)[O-])c1 (stereo unspecified)	124 to 126 °C
Clc1ccc(-c2cc(OCCCN3CCCCC3)[nH]n2)cc1	140 °C
O=C(Nc1ccccn1)c1cc2ccnc(Cl)c2[nH]1	94 to 102 °C
CCOC(c1ccc(Cl)c2nc3n(c12)CCCN3c1ccc(Cl)cc1Cl)C1CC1 (stereo unspecified)	138 to 140 °C
CCC(=O)Oc1cc(OC)cc(OC)c1C(=O)C=Cc1cccs1	127 °C
O=C(CC(c1ccc(OC(F)F)c(OCC2CC2)c1)N1C(=O)c2ccccc2C1=O)NO (stereo unspecified)	129 to 131 °C
COc1ccc2c(c1)S(=O)(=O)C(C(=O)Nc1cccc(C(F)(F)F)c1)C(=O)N2C (stereo unspecified)	165 to 168 °C
COC(=O)c1c(NCc2ccc(OC)c(Cl)c2)nc(SC)nc1OC	124 to 126 °C
[N-]=[N+]=NCC1Cc2cc(Cl)cc(-c3ccsc3)c2O1 (stereo unspecified)	50 to 52 °C
CN1C(=O)C(c2ccncc2)(c2cccc(O)c2)N=C1N (stereo unspecified)	245 to 247 °C
Cc1cc(O)c(N)c([N+](=O)[O-])c1C	176 to 178 °C
COc1cccc(COc2cncc(Cl)n2)c1	111 to 113 °C
N=C(NC=Cc1ccc([N+](=O)[O-])cc1)c1cccc([N+](=O)[O-])c1	152 to 155 °C
C=CCNc1c(CO)cnc2cn[nH]c12	190 to 192 °C
COc1cc2c(cc1OC)-c1cc(=O)n(C)c(=O)n1CC2	260 to 262 °C
CC(=O)OCCc1ccc(NC(=O)CCCCl)cc1	83 °C
COc1ccc(C)cc1NC(=O)Nc1ccc(N2CCN(C(=O)Oc3ccc(CCO)cc3Cl)CC2)cc1	189 to 190 °C
CN(C)C(=O)ON=C1COCS1	87.5 to 88 °C
CC(C)(C)c1cc(C(C)(C)C)c2c(c1)C1(O)C(=O)c3ccccc3C1(O)O2 (stereo unspecified)	200 to 203 °C
Cc1ccnc2c1nc(COc1ccc(CC3SC(=O)N(C(c4ccccc4)(c4ccccc4)c4ccccc4)C3=O)cc1)n2C (stereo unspecified)	92 to 105 °C
COc1ccc(C2CCN(c3c(C)c(C)c4c(c3C)C(O)(c3ccc(F)cc3)C(C)(C)O4)CC2)cc1OC (stereo unspecified)	150 to 152 °C
CCCCCc1ocnc1C(=O)O	84 to 85 °C

SMILES	melting point
CCc1c(C(=O)C(N)=O)c2c(OCC(=O)NOCc3ccccc3)cccc2n1Cc1ccccc1	167 to 169 °C
CCn1ncc(C(=O)c2ccc(S(C)(=O)=O)c(-n3nc(C)cc3C)c2Cl)c1O	217 to 218 °C
CNC(=O)[C@H](NC(=O)c1ccc(F)cc1C(F)(F)F)[C@@H](CN)c1ccccc1 (racemic)	188 °C
COc1cn(-c2cccnc2)nc(-c2ccnn2-c2ccccc2)c1=O	210 to 212 °C
O=Cc1c2ccccc2c(Br)c2ccccc12	215 to 216 °C
COC(=O)Cn1c(C)cc(O)c([N+](=O)[O-])c1=O	187 °C
O=C(O)C(=O)c1ccc(OCc2cc3ccccc3o2)cc1	120 °C
COCC(=O)c1cc(-c2ccc(S(C)(=O)=O)cc2)n(-c2ccc(F)cc2)n1	151 to 154 °C
COC(=O)C(C)(C)OCC#Cc1cc(Cl)ccc1NS(=O)(=O)c1ccc(OC)cc1	98 to 100 °C
Cc1c(C)c2c(c(C)c1N)CC(C)(CN1CCc3c([nH]c4ccccc34)C1)O2 (stereo unspecified)	150 to 153 °C
CCCCCCCc1nc(-c2ccccc2)c(-c2ccccc2)n1CCCCCCCC(=O)O	75 to 76 °C
CC(CO)Oc1ccc2c(c1)c(-c1cc3cccnc3[nH]1)cn2C (stereo unspecified)	164 to 165 °C
Cc1nc(NC(=O)C2=C(O)c3ccc4ccccc4c3S(=O)(=O)N2)sc1C	253 °C
O=C(O)c1ccccc1C(=O)N1Cc2cccn2Cc2ccccc21	210 to 214 °C
O=C(c1ccccc1Cl)c1cc(Cl)ccc1I	64 to 66 °C
CCOP(=O)(CCc1cccc(-c2nc(=O)c3ccccc3s2)n1)OCC	149 to 150 °C
CC(C)CCCCNC(=O)n1sc2ccccc2c1=O	49 to 51 °C
COc1ccc(C(=O)NNC(=O)c2occ(-c3ccccc3)c2-c2ccccc2)cc1NS(C)(=O)=O	180 to 182 °C
COc1c2c(cc3c1OCO3)C(O)CN(C)C2 (stereo unspecified)	151 to 153 °C
CC(=O)Cc1ccc(C#CC(C)(C)O)cc1	67 to 69 °C
COc1ccc(C(=O)Nc2c(Cl)cncc2Cl)cc1OC1COCC1O (stereo unspecified)	183 to 185 °C
Cc1oc(-c2ccccc2)nc1CCc1noc(COc2cccc(CC(=O)O)c2)n1	93 to 94 °C
CC(C)(C)OC(=O)N(CCc1ccc(C(F)(F)F)cc1)C1CCN(C[C@@]2(C)Cn3cc([N+](=O)[O-])nc3O2)CC1	207 to 209 °C
CCC(C)(C)OC(=O)OOC1CC(C)(C)N(C(C)=O)C(C)(C)C1	70 to 73 °C

SMILES	melting point
Cn1cc(-c2cc(-c3cnc4[nH]cc(C(F)(F)F)c4c3)ccn2)n(-c2ccc(C(C)(C)C#N)cc2)c1=O	159 °C
CC1=NC(SCc2ccccc2)=CC2=CN(C)NN21	108 to 111 °C
c1ccc(COc2ccc(-c3nnn[nH]3)cc2)cc1	228 °C
CNC(=NCCCSCc1[nH]cnc1C)NC#N	156 to 158 °C
CCCN(CCC)C(=O)CCCN1CC[C@H](CNC(=O)c2ccc(N)cc2OC)[C@H](OC)C1 (relative stereo)	133 °C
COc1ccc(S(=O)(=O)N2C(=O)C(OC(=O)Oc3ccccc3)(c3ccccc3OC(F)(F)F)c3cc(Cl)ccc32)c(OC)c1 (stereo unspecified)	203 to 204 °C
Cc1c(NC(=O)c2cccc(Oc3ccccc3)c2)ccc2cc(CN3CCCC3)cnc12	147 to 148 °C
CC(C)(O)Cn1c(CO)nc2c(N)nc3cc(CCCNS(C)(=O)=O)ccc3c21	202 to 205 °C
CCOC(=O)C1Nc2cc(Cl)c(Cl)cc2NC1=O (stereo unspecified)	> 300 °C
N#CCc1ccc(-c2nc3ccccc3o2)cc1-c1cccc(C#N)c1	175 to 176 °C
COc1ccc2c(c1)CCC2=NNS(=O)(=O)c1ccc(C)cc1	195 to 196 °C
CNc1ccc(F)c(C#N)c1	64 to 65 °C
CCC(=O)Nc1ccc2[nH]cc(C3CCN(C)CC3)c2n1	98.9 to 101 °C
Cc1n[nH]cc1-c1cnc2[nH]c(=O)n(CC3CCOCC3)c2n1	222 to 224 °C
CC(CO)c1ccc2c(=O)c3ccccc3ccc2c1 (stereo unspecified)	63 to 66 °C
CCCCCCCCCCCC(=O)NC(CCCCNN=C=S)C(=O)O (stereo unspecified)	37 to 39 °C
O=C(O)[C@@H](Cc1ccccc1)NS(=O)(=O)N1CCN(c2ccc(Cl)cc2)CC1	176 to 178 °C
CN1CCC[C@H]1c1ccc(Cl)cc1P(c1cccc2ccccc12)c1cccc2ccccc12	224 to 226 °C
COC1OCC[C@@H]1NC(=O)[C@H](CC(C)C)NC(=O)[C@H](CC(C)C)NC(=O)[C@H](CC(C)C)NC(=O)OCc1ccccc1 (stereo partly specified)	210 to 212 °C
CNC(=O)N/N=C1/C(=O)N(CCN(C(C)C)C(C)C)c2ccccc21	175 to 177 °C
O=[N+]([O-])c1ccc(Cl)nc1Nc1ccccc1	95 to 98 °C
NC(=O)c1cc(F)c(NC2CCNCC2)cc1F	188 to 190 °C
Cc1ccnc2c1C(=O)CC(c1ccc(F)cc1F)C2 (stereo unspecified)	106 to 107 °C
